Source: patent publication EP2818472A1, “Imidazo[4,5-c]pyridine and pyrrolo[3,2-c]pyridine compounds as G-protein-coupled receptor kinase 5 (GRK5) modulators” (Max-Planck-Gesellschaft zur Förderung der Wissenschaften …, priority 2013, dated 2014)

system: beta-TC6 cells; test: Insulin HTRF assay (relative activity Ar) in beta-TC6 cells; format: cell-based, mouse; settings: Mus musculus, Beta-TC6, 4 h, insulin HTRF, supernatant of beta-TC6 cells, incubation with test compound at 37°C for 2, 3, 4h; read-out: Ar (relative activity)
How it was run: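 beta-TC6 cells (15k/well, seeded 24 or 48 h) washed, then exposed to compound in induction buffer (0.5% DMSO final) for 2, 3 or 4 h at 37°C.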

First: CNc1nc2cnc(Nc3ccccc3)cc2n1Cc1ccc(OC)c(OC)c1 [Compound 667, 1-[(3,4-dimethoxyphenyl)methyl]-N2-methyl-N6-phenyl-imidazo[4,5-c]pyridine-2,6-diamine]
Second: CNc1nc2cnc(Nc3ccc(O)cc3)cc2n1Cc1ccc(OC)c(OC)c1 [Compound 663, 4-[[1-[(3,4-dimethoxyphenyl)methyl]-2-(methylamino)imidazo[4,5-c]pyridin-6-yl]amino]phenol]
The Emax of the first is lower: 30 to 50% for the first, 50 to 100% for the second.

`CC(=O)N(C)c1cccc(-c2cc3cnc(Nc4ccc(C#N)cc4)cc3n2C)c1` [Compound 168, N-[3-[6-(4-cyanoanilino)-1-methyl-pyrrolo[3,2-c]pyridin-2-yl]phenyl]-N-methyl-acetamide] and `CN(C)C(=O)c1ccc(Nc2cc3[nH]c(-c4cccc(F)c4)cc3cn2)cc1` [Compound 14, 4-[[2-(3-fluorophenyl)-1H-pyrrolo[3,2-c]pyridin-6-yl]amino]-N,N-dimethyl-benzamide] fall in the same range of Emax: 30 to 50% for the first, 30 to 50% for the second.

`CNc1nc2cnc(Nc3ccc(C(=O)N(C)C)cc3)cc2n1Cc1ccccc1` [Compound 537, 4-[[1-benzyl-2-(methylamino)imidazo[4,5-c]pyridin-6-yl]amino]-N,N-dimethyl-benzamide] and `CNc1nc2cnc(Nc3ccc(NC(C)=O)cc3)cc2n1Cc1ccccc1` [Compound 527, N-[4-[[1-benzyl-2-(methylamino)imidazo[4,5-c]pyridin-6-yl]amino]phenyl]acetamide] fall in the same range of Emax: 50 to 100% for the first, 50 to 100% for the second.

First: CNc1nc2cnc(-c3cccs3)cc2n1-c1ccccc1 [Compound 514, N-methyl-1-phenyl-6-(2-thienyl)imidazo[4,5-c]pyridin-2-amine]
Second: CNc1nc2cnc(-c3cccc(N(C)C)c3)cc2n1-c1ccccc1 [Compound 783, 6-[3-(dimethylamino)phenyl]-N-methyl-1-phenyl-imidazo[4,5-c]pyridin-2-amine]
The Emax of the first is higher: 30 to 50% for the first, 0 to 30% for the second.

`CNc1nc2cnc(Nc3cccc(O)c3)cc2n1-c1cc(OC)c(OC)c(OC)c1` [Compound 491, 3-[[2-(methylamino)-1-(3,4,5-trimethoxyphenyl)imidazo[4,5-c]pyridin-6-yl]amino]phenol] and `CNc1nc2cnc(Nc3cc(OC)c(OC)c(OC)c3)cc2n1-c1ccccc1` [Compound 502, N2-methyl-1-phenyl-N6-(3,4,5-trimethoxyphenyl)imidazo[4,5-c]pyridine-2,6-diamine] fall in the same range of Emax: 50 to 100% for the first, 50 to 100% for the second.

`COc1ccccc1-c1cc2c(Nc3ccc(C(N)=O)cc3)nccc2[nH]1` [Compound 294, 4-[[2-(2-methoxyphenyl)-1H-pyrrolo[3,2-c]pyridin-4-yl]amino]benzamide] and `COc1ccc(Nc2nccc3[nH]c(-c4ccccc4)nc23)cc1` [Compound 333, N-(4-methoxyphenyl)-2-phenyl-1H-imidazo[4,5-c]pyridin-4-amine] fall in the same range of Emax: 50 to 100% for the first, 50 to 100% for the second.

First: CNc1nc2cnc(Nc3cccc(NC(C)=O)c3)cc2n1-c1cccc(F)c1 [Compound 688, N-[3-[[1-(3-fluorophenyl)-2-(methylamino)imidazo[4,5-c]pyridin-6-yl]amino]phenyl]acetamide]
Second: CC(=O)Nc1cccc(Nc2cc3[nH]c(-c4cccc(F)c4)cc3cn2)c1 [Compound 15, N-[3-[[2-(3-fluorophenyl)-1H-pyrrolo[3,2-c]pyridin-6-yl]amino]phenyl]acetamide]
The Emax of the first is higher: 50 to 100% for the first, 30 to 50% for the second.

First: CC(=O)Nc1cccc(Nc2nccc3c2cc(-c2cccnc2)n3C)c1 [Compound 245, N-[3-[[1-methyl-2-(3-pyridyl)pyrrolo[3,2-c]pyridin-4-yl]amino]phenyl]acetamide]
Second: Cn1c(-c2ccsc2)cc2c(Nc3cccc(S(C)(=O)=O)c3)nccc21 [Compound 282, 1-methyl-N-(3-methylsulfonylphenyl)-2-(3-thienyl)pyrrolo[3,2-c]pyridin-4-amine]
The Emax of the first is higher: 50 to 100% for the first, 30 to 50% for the second.

`Oc1cccc(-c2nc3c(N4CCOCC4)nccc3[nH]2)c1` [Compound 363, 3-(4-morpholino-1H-imidazo[4,5-c]pyridin-2-yl)phenol] and `COc1cccc(-c2nc3c(Nc4cc(OC)c(OC)c(OC)c4)nccc3[nH]2)c1` [Compound 367, 2-(3-methoxyphenyl)-N-(3,4,5-trimethoxyphenyl)-1H-imidazo[4,5-c]pyridin-4-amine] fall in the same range of Emax: 30 to 50% for the first, 30 to 50% for the second.

First: Cn1cc(-c2cc3c(Nc4ccc(S(C)(=O)=O)cc4)nccc3[nH]2)cn1 [Compound 246, 2-(1-methylpyrazol-4-yl)-N-(4-methylsulfonylphenyl)-1H-pyrrolo[3,2-c]pyridin-4-amine]
Second: Fc1cccc(-c2cc3c(Nc4cccnc4)nccc3[nH]2)c1 [Compound 200, 2-(3-fluorophenyl)-N-(3-pyridyl)-1H-pyrrolo[3,2-c]pyridin-4-amine]
The Emax of the first is higher: > 100% for the first, 30 to 50% for the second.

First: CC(=O)Nc1ccc(Nc2cc3c(cn2)nc(NCc2ccccc2)n3C)cc1 [Compound 617, N-[4-[[2-(benzylamino)-1-methyl-imidazo[4,5-c]pyridin-6-yl]amino]phenyl]acetamide]
Second: CC(=O)c1cccc(Nc2cc3c(cn2)nc(NCc2ccccc2)n3C)c1 [Compound 628, 1-[3-[[2-(benzylamino)-1-methyl-imidazo[4,5-c]pyridin-6-yl]amino]phenyl]ethanone]
The Emax of the first is higher: 50 to 100% for the first, 30 to 50% for the second.

Compared with `Nc1cccc(-c2cc3cnc(Nc4cccnc4)cc3[nH]2)c1` [Compound 2, 2-(3-aminophenyl)-N-(3-pyridyl)-1H-pyrrolo[3,2-c]pyridin-6-amine], `Oc1cccc(Nc2cc3[nH]c(-c4ccccc4)cc3cn2)c1` [Compound 180, 3-[(2-phenyl-1H-pyrrolo[3,2-c]pyridin-6-yl)amino]phenol] is higher in Emax: 30 to 50% for the first, 50 to 100% for the second.

First: COc1cc(Nc2nccc3[nH]c(-c4ccccc4)nc23)cc(OC)c1OC [Compound 329, 2-phenyl-N-(3,4,5-trimethoxyphenyl)-1H-imidazo[4,5-c]pyridin-4-amine]
Second: COc1ccc(Nc2nccc3[nH]c(-c4cccc(OC)c4F)nc23)cc1O [Compound 479, 5-[[2-(2-fluoro-3-methoxy-phenyl)-1H-imidazo[4,5-c]pyridin-4-yl]amino]-2-methoxy-phenol]
The Emax of the first is lower: 50 to 100% for the first, > 100% for the second.

Compared with `Cn1c(NCc2ccccc2)nc2cnc(-c3ccccc3)cc21` [Compound 836, N-benzyl-1-methyl-6-phenyl-imidazo[4,5-c]pyridin-2-amine], `CN(C)c1cccc(Nc2cc3c(cn2)nc(NCc2ccccc2)n3C)c1` [Compound 619, N2-benzyl-N6-[3-(dimethylamino)phenyl]-1-methyl-imidazo[4,5-c]pyridine-2,6-diamine] is higher in Emax: 30 to 50% for the first, 50 to 100% for the second.

Compared with `Fc1ccc(Nc2cc3[nH]c(-c4ccccc4)cc3cn2)cc1` [Compound 179, N-(4-fluorophenyl)-2-phenyl-1H-pyrrolo[3,2-c]pyridin-6-amine], `CN(C)C(=O)c1ccc(-c2cc3cnc(Nc4ccc(OC(F)(F)F)cc4)cc3[nH]2)cc1` [Compound 34, N,N-dimethyl-4-[6-[4-(trifluoromethoxy)anilino]-1H-pyrrolo[3,2-c]pyridin-2-yl]benzamide] is lower in Emax: 30 to 50% for the first, 0 to 30% for the second.

Compared with `CSc1ccc(Nc2cc3c(cn2)cc(-c2cnn(C)c2)n3C)cc1` [Compound 153, 1-methyl-2-(1-methylpyrazol-4-yl)-N-(4-methylsulfanylphenyl)pyrrolo[3,2-c]pyridin-6-amine], `CN(C)c1ccc(-c2cc3c(Nc4ccc(O)cc4)nccc3n2C)cc1` [Compound 226, 4-[[2-(4-dimethylaminophenyl)-1-methyl-pyrrolo[3,2-c]pyridin-4-yl]amino]phenol] is higher in Emax: 30 to 50% for the first, 50 to 100% for the second.

`COc1ccc(Nc2nccc3c2cc(-c2ccsc2)n3C)cc1O` [Compound 284, 2-methoxy-5-[[1-methyl-2-(3-thienyl)pyrrolo[3,2-c]pyridin-4-yl]amino]phenol] and `CN(C)C(=O)c1ccc(-c2cc3c(Nc4cccc(N(C)C)c4)nccc3n2C)cc1` [Compound 218, 4-[4-[3-(dimethylamino)anilino]-1-methyl-pyrrolo[3,2-c]pyridin-2-yl]-N,N-dimethyl-benzamide] fall in the same range of Emax: 50 to 100% for the first, 50 to 100% for the second.

First: CNc1nc2cnc(-c3ccc(Cl)cc3)cc2n1Cc1ccccc1 [Compound 792, 1-benzyl-6-(4-chlorophenyl)-N-methyl-imidazo[4,5-c]pyridin-2-amine]
Second: CNc1nc2cnc(Nc3cccc(OC)c3)cc2n1Cc1cccnc1 [Compound 560, N6-(3-methoxyphenyl)-N2-methyl-1-(3-pyridylmethyl)imidazo[4,5-c]pyridine-2,6-diamine]
The Emax of the first is lower: 30 to 50% for the first, 50 to 100% for the second.

Compared with `COc1ccc(Nc2cc3[nH]c(-c4cn[nH]c4)cc3cn2)cc1OC` [Compound 111, N-(3,4-dimethoxyphenyl)-2-(1H-pyrazol-4-yl)-1H-pyrrolo[3,2-c]pyridin-6-amine], `CC(=O)c1cccc(Nc2cc3[nH]c(-c4cncn4C)cc3cn2)c1` [Compound 107, 1-[3-[[2-(3-methylimidazol-4-yl)-1H-pyrrolo[3,2-c]pyridin-6-yl]amino]phenyl]ethanone] is lower in Emax: > 100% for the first, 50 to 100% for the second.

Compared with `CNc1nc2cnc(-c3ccc4c(c3)OCO4)cc2n1-c1cccc(F)c1` [Compound 885, 6-(1,3-benzodioxol-5-yl)-1-(3-fluorophenyl)-N-methyl-imidazo[4,5-c]pyridin-2-amine], `CNc1nc2cnc(Nc3ccc4c(c3)OCO4)cc2n1-c1cccc(C(F)(F)F)c1` [Compound 549, N6-(1,3-benzodioxol-5-yl)-N2-methyl-1-[3-(trifluoromethyl)phenyl]imidazo[4,5-c]pyridine-2,6-diamine] is higher in Emax: 0 to 30% for the first, 30 to 50% for the second.

Work on `CN(C)C(=O)c1ccc(-c2cc3c(Nc4cccc(OC(F)(F)F)c4)nccc3n2C)cc1` [Compound 222, N,N-dimethyl-4-[1-methyl-4-[3-(trifluoromethoxy)anilino]pyrrolo[3,2-c]pyridin-2-yl]benzamide] yielded an Emax of 0 to 30%.

same assay, conditions: insulin HTRF, supernatant of beta-TC6 cells, incubation with test compound at 37°C for 2, 3, 4h

With `CNc1nc2cnc(-c3ccc(N(C)C)cc3)cc2n1-c1ccccc1` [Compound 501, 6-(4-dimethylaminophenyl)-N-methyl-1-phenyl-imidazo[4,5-c]pyridin-2-amine] the “Ar (relative activity)” value was “++++ (Ar ≥ 100 %)”.
